This passage reports mutagenic call results from PubChem BioAssay AID1259407 (Chemical Carcinogenesis Research Information System (CCRIS), 2018).

This data set deals with CCRIS mutagenicity, Ames/micronucleus/aberration tests. In words: CCRIS mutagenicity studies.
Where [1] appears, read: Test System: AMES SALMONELLA TYPHIMURIUM, Strain/Indicator: TA98, Metabolic Activation: NONE, Method: PREINCUBATION

The structures appear in SMILES notation. Activity calls are given as the source filed them. The rule behind the calls is not given here.

On to `O=C(O)C[C@H](NC(=O)COc1ccc(Cl)cc1Cl)C(=O)O`, for which the mutagenic call (Test System: AMES SALMONELLA TYPHIMURIUM, Strain/Indicator: TA97, Metabolic Activation: RAT, LIVER, S-9, AROCLOR 1254, Method: STANDARD PLATE) is “inactive; negative”; the mutagenic call (Test System: AMES SALMONELLA TYPHIMURIUM, Strain/Indicator: TA97, Metabolic Activation: WOODCHUCK, LIVER, S-9, 3-METHYLCHOLANTHRENE, Method: STANDARD PLATE) is “inactive; negative”; the mutagenic call (Test System: AMES SALMONELLA TYPHIMURIUM, Strain/Indicator: TA98, Metabolic Activation: RAT, LIVER, S-9, AROCLOR 1254, Method: STANDARD PLATE) was “inactive; negative”; the mutagenic call (Test System: AMES SALMONELLA TYPHIMURIUM, Strain/Indicator: TA98, Metabolic Activation: WOODCHUCK, LIVER, S-9, 3-METHYLCHOLANTHRENE, Method: STANDARD PLATE) was “inactive; negative”; the mutagenic call (Test System: AMES SALMONELLA TYPHIMURIUM, Strain/Indicator: TA100, Metabolic Activation: RAT, LIVER, S-9, AROCLOR 1254, Method: STANDARD PLATE) was “inactive; negative”; the mutagenic call (Test System: AMES SALMONELLA TYPHIMURIUM, Strain/Indicator: TA100, Metabolic Activation: WOODCHUCK, LIVER, S-9, 3-METHYLCHOLANTHRENE, Method: STANDARD PLATE) was “inactive; negative”. Also, the mutagenic call was “inactive; negative” (Test System: AMES SALMONELLA TYPHIMURIUM, Strain/Indicator: TA1535, Metabolic Activation: RAT, LIVER, S-9, AROCLOR 1254, Method: STANDARD PLATE); “inactive; negative” (Test System: AMES SALMONELLA TYPHIMURIUM, Strain/Indicator: TA1535, Metabolic Activation: WOODCHUCK, LIVER, S-9, 3-METHYLCHOLANTHRENE, Method: STANDARD PLATE); “inactive; negative” (Test System: AMES SALMONELLA TYPHIMURIUM, Strain/Indicator: TA1538, Metabolic Activation: RAT, LIVER, S-9, AROCLOR 1254, Method: STANDARD PLATE); “inactive; negative” (Test System: AMES SALMONELLA TYPHIMURIUM, Strain/Indicator: TA1538, Metabolic Activation: WOODCHUCK, LIVER, S-9, 3-METHYLCHOLANTHRENE, Method: STANDARD PLATE).

For `CCCCCOC(=O)NO`, for the setting “Test System: E. COLI, Strain/Indicator: WP2 UVRA, Metabolic Activation: NONE, Method: FLUCTUATION TEST”, the mutagenic call was “active; positive”.

Regarding `[O-][n+]1cccc2c1[C@H]1O[C@H]1C=C2`, the mutagenic call is “inactive; negative” (Test System: AMES SALMONELLA TYPHIMURIUM, Strain/Indicator: TA100, Metabolic Activation: NONE, Method: STANDARD PLATE) and “inactive; negative” (Test System: AMES SALMONELLA TYPHIMURIUM, Strain/Indicator: TA100, Metabolic Activation: RAT, LIVER, S-9, AROCLOR 1254 (10 OR 20%), Method: STANDARD PLATE).

Take `CCc1c(O)c(=O)ccn1CC`: the mutagenic call (Test System: Mouse lymphoma, Strain/Indicator: L5178Y (tk+/tk-), Metabolic Activation: None, Method: Suspension/plate) is “active; positive” and the mutagenic call (Test System: Mouse lymphoma, Strain/Indicator: L5178Y (tk+/tk-), Metabolic Activation: Rat, Liver, S-9, Aroclor 1254, Method: Suspension/plate) was “active; positive”.

For `CC(C)CO`, the mutagenic call by setting is: (Test System: AMES SALMONELLA TYPHIMURIUM, Strain/Indicator: TA97, Metabolic Activation: HAMSTER, LIVER, S-9, AROCLOR 1254 (10 OR 30%), Method: PREINCUBATION) “inactive; negative”; (Test System: AMES SALMONELLA TYPHIMURIUM, Strain/Indicator: TA97, Metabolic Activation: NONE, Method: PREINCUBATION) “inactive; negative”; (Test System: AMES SALMONELLA TYPHIMURIUM, Strain/Indicator: TA97, Metabolic Activation: RAT, LIVER, S-9, AROCLOR 1254 (10 OR 30%), Method: PREINCUBATION) “inactive; negative”; (Test System: AMES SALMONELLA TYPHIMURIUM, Strain/Indicator: TA98, Metabolic Activation: HAMSTER, LIVER, S-9, AROCLOR 1254 (10 OR 30%), Method: PREINCUBATION) “inactive; negative”; under setting [1], “inactive; negative”; (Test System: AMES SALMONELLA TYPHIMURIUM, Strain/Indicator: TA98, Metabolic Activation: RAT, LIVER, S-9, AROCLOR 1254 (10 OR 30%), Method: PREINCUBATION) “inactive; negative”. In addition, the mutagenic call was “inactive; negative” (Test System: AMES SALMONELLA TYPHIMURIUM, Strain/Indicator: TA98, Metabolic Activation: RAT, LIVER, S-9, KC 500, Method: PREINCUBATION); “inactive; negative” (Test System: AMES SALMONELLA TYPHIMURIUM, Strain/Indicator: TA100, Metabolic Activation: HAMSTER, LIVER, S-9, AROCLOR 1254 (10 OR 30%), Method: PREINCUBATION); “inactive; negative” (Test System: AMES SALMONELLA TYPHIMURIUM, Strain/Indicator: TA100, Metabolic Activation: NONE, Method: PREINCUBATION); “inactive; negative” (Test System: AMES SALMONELLA TYPHIMURIUM, Strain/Indicator: TA100, Metabolic Activation: RAT, LIVER, S-9, AROCLOR 1254 (10 OR 30%), Method: PREINCUBATION); “inactive; negative” (Test System: AMES SALMONELLA TYPHIMURIUM, Strain/Indicator: TA100, Metabolic Activation: RAT, LIVER, S-9, KC 500, Method: PREINCUBATION); “inactive; negative” (Test System: AMES SALMONELLA TYPHIMURIUM, Strain/Indicator: TA1535, Metabolic Activation: HAMSTER, LIVER, S-9, AROCLOR 1254 (10 OR 30%), Method: PREINCUBATION). Further, the mutagenic call (Test System: AMES SALMONELLA TYPHIMURIUM, Strain/Indicator: TA1535, Metabolic Activation: NONE, Method: PREINCUBATION) is “inactive; negative”; the mutagenic call (Test System: AMES SALMONELLA TYPHIMURIUM, Strain/Indicator: TA1535, Metabolic Activation: RAT, LIVER, S-9, AROCLOR 1254 (10 OR 30%), Method: PREINCUBATION) was “inactive; negative”; the mutagenic call (Test System: AMES SALMONELLA TYPHIMURIUM, Strain/Indicator: TA1535, Metabolic Activation: RAT, LIVER, S-9, KC 500, Method: PREINCUBATION) was “inactive; negative”; the mutagenic call (Test System: AMES SALMONELLA TYPHIMURIUM, Strain/Indicator: TA1537, Metabolic Activation: HAMSTER, LIVER, S-9, AROCLOR 1254 (30%), Method: PREINCUBATION) is “inactive; negative”; the mutagenic call (Test System: AMES SALMONELLA TYPHIMURIUM, Strain/Indicator: TA1537, Metabolic Activation: NONE, Method: PREINCUBATION) is “inactive; negative”; the mutagenic call (Test System: AMES SALMONELLA TYPHIMURIUM, Strain/Indicator: TA1537, Metabolic Activation: RAT, LIVER, S-9, AROCLOR 1254 (30%), Method: PREINCUBATION) was “inactive; negative”. Besides, the mutagenic call was “inactive; negative” (Test System: AMES SALMONELLA TYPHIMURIUM, Strain/Indicator: TA1537, Metabolic Activation: RAT, LIVER, S-9, KC 500, Method: PREINCUBATION); “inactive; negative” (Test System: AMES SALMONELLA TYPHIMURIUM, Strain/Indicator: TA1538, Metabolic Activation: NONE, Method: PREINCUBATION); “inactive; negative” (Test System: AMES SALMONELLA TYPHIMURIUM, Strain/Indicator: TA1538, Metabolic Activation: RAT, LIVER, S-9, KC 500, Method: PREINCUBATION); “inactive; negative” (Test System: Ames Salmonella typhimurium, Strain/Indicator: TA98, Metabolic Activation: None, Method: Preincubation); “inactive; negative” (Test System: Ames Salmonella typhimurium, Strain/Indicator: TA98, Metabolic Activation: Rat, Liver, S-9, Phenobarbital and 5,6-benzoflavone, Method: Preincubation); “inactive; negative” (Test System: Ames Salmonella typhimurium, Strain/Indicator: TA100, Metabolic Activation: None, Method: Preincubation). Also, the mutagenic call is “inactive; negative” (Test System: Ames Salmonella typhimurium, Strain/Indicator: TA100, Metabolic Activation: Rat, Liver, S-9, Phenobarbital and 5,6-benzoflavone, Method: Preincubation); “inactive; negative” (Test System: Ames Salmonella typhimurium, Strain/Indicator: TA1535, Metabolic Activation: None, Method: Preincubation); “inactive; negative” (Test System: Ames Salmonella typhimurium, Strain/Indicator: TA1535, Metabolic Activation: Rat, Liver, S-9, Phenobarbital and 5,6-benzoflavone, Method: Preincubation); “inactive; negative” (Test System: Ames Salmonella typhimurium, Strain/Indicator: TA1537, Metabolic Activation: None, Method: Preincubation); “inactive; negative” (Test System: Ames Salmonella typhimurium, Strain/Indicator: TA1537, Metabolic Activation: Rat, Liver, S-9, Phenobarbital and 5,6-benzoflavone, Method: Preincubation); “inactive; negative” (Test System: CHINESE HAMSTER V-79, Strain/Indicator: V-79 (HPRT)/6-THIOGUANINE, Metabolic Activation: NONE, Method: STANDARD PLATE). Further, the mutagenic call is “inactive; negative” (Test System: CHINESE HAMSTER V-79, Strain/Indicator: V-79 (HPRT)/6-THIOGUANINE, Metabolic Activation: RAT LIVER S-9, Method: STANDARD PLATE); “inactive; negative” (Test System: E. COLI, Strain/Indicator: WP2 UVRA, Metabolic Activation: NONE, Method: PREINCUBATION); “inactive; negative” (Test System: E. COLI, Strain/Indicator: WP2 UVRA, Metabolic Activation: RAT, LIVER, S-9, KC 500, Method: PREINCUBATION); “inactive; negative” (Test System: E. coli, Strain/Indicator: WP2uvrA/pKM101, Metabolic Activation: None, Method: Preincubation); “inactive; negative” (Test System: E. coli, Strain/Indicator: WP2uvrA/pKM101, Metabolic Activation: Rat, Liver, S-9, Phenobarbital and 5,6-benzoflavone, Method: Preincubation).

Regarding `COC(=O)C(=Cc1ccc([N+](=O)[O-])o1)[N+](=O)[O-]`, under setting [1], the mutagenic call was “active; positive”.
